Measured values reported in ChEMBL document CHEMBL1201862, “PubChem BioAssay data set” (2004).
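Results reflect a 48-hour exposure of cells in 96-well plates to compound at five concentrations. GI50 = concentration required for 50% inhibition of growth.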 The source made the active and inactive calls. Rule as the data show it: active = GI50 up to about 1.1 µM and inactive = higher.

Legend:
Test in all cases: DTP human tumour cell line panel, 48 h
SNB-78 = test system: SNB-78
HOP-18 = test system: HOP-18
KM-20L2 = test system: KM-20L2
DLD-1 = test system: DLD-1
M19-MEL = test system: M19-MEL
T47D = test system: T47D
BT-549 = test system: BT-549
786-0 = test system: 786-0
RXF 631 = test system: RXF 631

| Structure (SMILES) | GI50 (SNB-78) | GI50 (HOP-18) | GI50 (KM-20L2) | GI50 (DLD-1) | GI50 (T47D) | GI50 (BT-549) | also measured |
| --- | --- | --- | --- | --- | --- | --- | --- |
| COc1cc(C2c3cc4c(cc3[C@@H](Nc3ccc(Oc5ccccc5)cc3)C3COC(=O)[C@H]23)OCO4)cc(OC)c1O (some centres not stated) | > 61 µM (inactive) | 4.47 µM (inactive) | 1.17 µM (inactive) | 3.95 µM (inactive) | – | – | GI50 (M19-MEL): 4.36 µM (inactive) |
| CCOC(=O)C1=NN(c2ccc(C)cc2)C2=CC(C)=NN(C)C(=S)N21 | – | – | – | – | 26.4 µM (inactive) | > 100 µM (inactive) | – |
| COc1cc(/N=N\c2cccc(S(=O)(=O)O)c2)ccc1/N=N\c1ccc(/C=C/c2ccc(-n3on3-c3ccc(/C=C/c4ccc(/N=N/c5ccc(/N=N\c6cccc(S(=O)(=O)O)c6)cc5OC)cc4S(=O)(=O)O)c(S(=O)(=O)O)c3)cc2S(=O)(=O)O)c(S(=O)(=O)O)c1 | > 100 µM (inactive) | > 100 µM (inactive) | > 100 µM (inactive) | > 100 µM (inactive) | – | – | GI50 (M19-MEL): > 100 µM (inactive) |
| CNC(=O)OCC1=C(COC(=O)NC)CN(c2ccc(OC)cc2)C1 | – | – | – | – | > 100 µM (inactive) | > 100 µM (inactive) | GI50 (786-0): > 100 µM (inactive) |
| CCOC(=O)C(O)(NC(=O)c1ccccc1F)C(F)(F)F (configuration not stated) | – | – | – | – | > 100 µM (inactive) | > 100 µM (inactive) | – |
| COC(=O)C(C)NP(=O)(N1CC1)N1CC1 (configuration not stated) | > 100 µM (inactive) | – | > 100 µM (inactive) | > 100 µM (inactive) | – | – | GI50 (RXF 631): > 100 µM (inactive) |
| O=C(Nc1ccc2[nH]c3c(-c4ccccc4)nccc3c2c1)c1ccccc1[N+](=O)[O-] | 5.47 µM (inactive) | > 100 µM (inactive) | 1.74 µM (inactive) | – | – | – | GI50 (RXF 631): 3.81 µM (inactive) |
| CCOC(=O)Cc1cnc(NC(NC(=O)CC)(C(F)(F)F)C(F)(F)F)s1 | – | – | – | – | > 100 µM (inactive) | > 100 µM (inactive) | – |
| N/C(=N\O)N/N=C\c1ccc(O)c(O)c1O | > 51.3 µM (inactive) | > 100 µM (inactive) | 26.7 µM (inactive) | 23.8 µM (inactive) | – | – | GI50 (M19-MEL): 20.1 µM (inactive) |
| CC1(C)N=C(c2ccccc2)SC12S[C@@H]1CCCC[C@H]1S2 | – | – | – | – | 35.8 µM (inactive) | > 100 µM (inactive) | – |
| O=C1c2cc3c(cc2CC1Cc1ccc2c(c1)CCC2)CCC3 (configuration not stated) | – | – | – | – | 10.9 µM (inactive) | 81.3 µM (inactive) | – |
| COc1ccc([C@H]2c3cc4c(cc3OC(O)(CO)[C@H]2C(=O)O)OCO4)c(OC)c1.COc1ccc([C@H]2c3cc4c(cc3OC3(O)COC(=O)[C@@H]23)OCO4)c(OC)c1 (some centres not stated) | > 100 µM (inactive) | > 100 µM (inactive) | > 100 µM (inactive) | 91.8 µM (inactive) | – | – | GI50 (M19-MEL): 61.7 µM (inactive) |
| C=CCCC(On1c(-c2ccc(Cl)cc2)csc1=S)c1ccccc1 (configuration not stated) | – | – | – | – | 17 µM (inactive) | 58.3 µM (inactive) | GI50 (786-0): 32.6 µM (inactive) |
| O=C(Nc1cccc([N+](=O)[O-])c1)C(=O)C(C(=O)c1ccccc1F)C1OC(=O)C2C=CC=CC21 (configuration not stated) | 36.6 µM (inactive) | – | 41.2 µM (inactive) | 43.4 µM (inactive) | – | – | GI50 (M19-MEL): 31.6 µM (inactive) |
| O=Nn1c2ccccc2c2cc([N+](=O)[O-])ccc21 | – | – | – | – | 31.1 µM (inactive) | 17.2 µM (inactive) | – |
| CC1(C)N=C(/C(Cl)=[N+](/[O-])C(=O)c2ccc(Cl)cc2)C(C)(C)N1O | – | – | – | – | 38.3 µM (inactive) | – | – |
| Oc1nc2ccccc2c2oc3ccccc3c12 | – | – | – | – | 16.1 µM (inactive) | > 100 µM (inactive) | – |
| COc1cc([N+](=O)[O-])ccc1N1C(=O)C2c3[nH]c4ccccc4c3C3CCC(C(C)(C)C)CC3C2C1=O (configuration not stated) | – | – | – | – | – | 32 µM (inactive) | – |
| CNC(=O)OC(C)CN1c2ccccc2Sc2ccc(Cl)cc21 (configuration not stated) | – | – | – | – | > 10 µM (inactive) | – | – |
| COc1ccc(/C(Cl)=C(\CN(C)C)c2ccc(OC)c(OC)c2)cc1OC | > 100 µM (inactive) | > 100 µM (inactive) | > 100 µM (inactive) | – | – | – | GI50 (M19-MEL): > 100 µM (inactive) |
| CSc1nc(NC2OCC(OC(C)=O)C(OC(C)=O)C2OC(C)=O)c(/N=C(\C)C(C)=O)c(=O)[nH]1 (configuration not stated) | > 100 µM (inactive) | > 100 µM (inactive) | – | > 100 µM (inactive) | – | – | – |
